Measured values as given in PubChem BioAssay (NCI).
“And” between values parts separate entries of the source, which are not always exact repeats. Equal values may be shown once.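 All cell lines were grown in 96-well plates and treated with compound for 48 hours. The concentration for 50% growth inhibition is given as GI50. TGI: concentration producing complete growth inhibition.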

Experiments:
Assay in all cases: NCI-60 cell line screen, 48 h
SN12C renal = system: SN12C renal
OVCAR-3 ovarian = system: OVCAR-3 ovarian
SK-OV-3 ovarian = system: SK-OV-3 ovarian
HL-60(TB) leukemia = system: HL-60(TB) leukemia
HOP-62 NSCLC = system: HOP-62 NSCLC
OVCAR-4 ovarian = system: OVCAR-4 ovarian
OVCAR-5 ovarian = system: OVCAR-5 ovarian
IGROV1 ovarian = system: IGROV1 ovarian
MDA-MB-435 = system: MDA-MB-435
TK-10 renal = system: TK-10 renal

Compound	GI50 (SN12C renal)	TGI (SN12C renal) [µM]	GI50 (OVCAR-3 ovarian)	TGI (OVCAR-3 ovarian) [µM]	GI50 (SK-OV-3 ovarian) [µM]	TGI (SK-OV-3 ovarian) [µM]	GI50 (HL-60(TB) leukemia)	TGI (HL-60(TB) leukemia) [µM]	GI50 (HOP-62 NSCLC) [µM]	TGI (HOP-62 NSCLC) [µM]	GI50 (OVCAR-4 ovarian) [µM]	TGI (OVCAR-4 ovarian) [µM]	GI50 (OVCAR-5 ovarian) [µM]	TGI (OVCAR-5 ovarian) [µM]	GI50 (IGROV1 ovarian) [µM]	TGI (IGROV1 ovarian) [µM]	GI50 (MDA-MB-435)	TGI (MDA-MB-435) [µM]	GI50 (TK-10 renal) [µM]	TGI (TK-10 renal) [µM]
NC(=O)[C@@H](CC1CC1)[C@@H](CCC(F)(F)F)C(=O)N[C@H]1N=C(c2ccccc2)c2cccc(F)c2NC1=O	> 100 µM	> 100	> 100 µM	> 100	> 100	> 100	11.5 µM	39.1	> 100	> 100	54.9	> 100	> 100	> 100	31.7	> 100	66.7 µM	> 100	> 100	> 100
CCCCCCCCOC(=O)c1c(C)[nH]c(/C=C2\N=C(c3ccc[nH]3)C=C2OC)c1C	0.0601 µM	3.55	0.0276 µM	0.422	0.899	15.9	0.0688 µM	4.25	0.23	11.7	0.034	16.8	0.0943	3.45	0.0414	6.81	0.0226 µM	1.41	0.0484	7.29
CN(C)CCNC(=O)c1ccc(-c2nc3ccc4[nH]ncc4c3c3c2C2CCC3C2)cc1 (stereo not given)	1.82 µM	6.88	1.71 µM	5.9	0.348	4.28	0.388 µM	2.52	1.29	5.7	1.6	5.53	3.01	9.85	1.52	6.2	1.28 µM	4.45	0.723	8.02
CCCCCN(CCCCC)CC(O)c1cc(Cl)ccc1OC (stereo not given)	10.5 µM	28.8	10.8 µM	23.6	12.8	29.5	5.05 µM	25.9	12	26.7	3.17	16	10.4	23.8	3	15.1	8.53 µM	21.1	10.9	24.1
O=S1(=O)N(Cc2ccccc2)[C@@H](Cc2ccccc2)[C@H](O)[C@H](O)[C@H](Cc2ccccc2)N1Cc1ccccc1	3.26 µM	7.68	2.9 µM	6.07	4.15	10.6	2.97 µM	8.72	3.71	7.34	2.72	7.26	3.57	9.1	3.57	7.24	3.33 µM	7.1	3.77	8.38
CNNC(=N\S(=O)(=O)c1cc(C)c(Cl)cc1SCc1ccccc1)/N=C/c1ccc([N+](=O)[O-])s1	> 100 µM	> 100	> 44.1 µM	> 100	> 100	> 100	> 100 µM	> 100	> 100	> 100	> 100	> 100	> 100	> 100	> 100	> 100	18.5 µM	> 100	> 74.9	> 100
CN(C)c1ccc(/C=C2\N=C(c3ccccc3)N(c3cc(C(F)(F)F)ccc3Cl)C2=O)cc1	> 100 µM	> 100	> 78.5 µM	> 100	> 100	> 100	> 100 µM	> 100	> 100	> 100	> 69	> 100	> 100	> 100	> 100	> 100	> 100 µM	> 100	> 100	> 100
Cc1nc2ccc(Br)cc2c(=O)n1-c1ccc(NC2OCC(O)C(O)C2O)cc1 (stereo not given)	30 µM and > 100 µM	> 100	34.8 µM and > 100 µM	> 100	> 100	> 100	34.9 µM and 73.1 µM	> 100	–	> 100	–	> 100	–	> 100	–	> 100	36 µM and > 100 µM	> 100	–	> 100
C=C1C(=O)O[C@H]2[C@H]1CC/C(COC(=O)NCc1ccc(OC)cc1)=C\CC[C@@]1(C)O[C@@H]21	3.4 µM	12.4	0.595 µM	1.53	14.6	29.3	0.813 µM	2.1	7.98	24.1	0.992	13.5	2.16	8.53	0.783	2.79	0.805 µM	2.62	0.359	1.51
CCN1CCN(c2cc(C)nc(N(CCCNc3ccnc4cc(Cl)ccc34)Cc3ccc4c(c3)OCO4)n2)CC1	4.13 µM	> 100	2.35 µM	6.09	14.8	34.8	1.9 µM	4	2.73	31.6	3.05	25.1	5.32	> 100	3.46	16.7	1.77 µM	3.3	1.84	3.87
NS(=O)(=O)c1ccc(N=Nc2c(O)[nH]c3ccc(C(=O)NCc4ccncc4)cc23)cc1	> 25 µM	> 25	> 25 µM	> 25	> 25	> 25	> 25 µM	> 25	> 25	> 25	> 25	> 25	> 25	> 25	> 25	> 25	> 25 µM	> 25	> 25	> 25
O=[N+]([O-])c1nccn1CC(O)CN1CCCCC1 (stereo not given)	–	> 100	–	> 100	–	> 100	–	> 100	–	> 100	–	> 100	–	> 100	–	> 100	–	> 100	–	> 100
COc1cc2ncnc(-n3ncc4cc(NC(=O)Nc5ccc(Cl)c(Cl)c5)ccc43)c2cc1OC	2.1 µM	4.78	1.92 µM	3.7	2.04	4.03	4.44 µM	85	1.91	3.76	1.92	3.89	1.83	4.31	2.05	4.66	1.84 µM	4.29	2.38	6.45
O=C(/C=C/c1ccc(C(F)(F)F)cc1)Nc1ccc(C=C2c3ccccc3C(=O)c3ccccc32)cc1	26.7 µM	> 100	3.76 µM	18	12.7	86.7	1.78 µM	8.75	11.7	51.9	5.26	> 100	43.6	> 100	33.2	> 100	0.64 µM	2.67	23.6	> 100
Cc1cc(C)c2c(n1)sc1c(N)ncnc12	> 22.3 µM	> 25	> 25 µM	> 25	> 25	> 25	> 25 µM	> 25	> 25	> 25	> 25	> 25	> 25	> 25	19.7	> 25	> 25 µM	> 25	10.1	> 25
CCOc1ccc(/C(C=O)=C(\Cl)c2ccc(OC)cc2)cc1	–	> 100	–	> 100	–	> 100	–	> 100	–	> 100	–	> 100	–	> 100	–	> 100	–	> 100	–	> 100
COC(=O)C(CCC(=O)CCl)N1C(=O)c2ccccc2C1=O (stereo not given)	–	23.8	–	16.7	–	31.5	–	5.71	–	29	–	27.4	–	28.4	–	26.9	–	22	–	21.5
Cn1c(=O)c2[nH]c(SCCN3CCOCC3)nc2n(C)c1=S	–	> 100	–	> 100	–	> 100	–	> 100	–	> 100	–	> 100	–	> 100	–	> 100	–	> 100	–	> 100
